Measurements published in ChEMBL document CHEMBL1126507, “The synthesis of novel 8a-aza-8a-homoerythromycin derivatives via the beckmann rearrangement of (9z)-erythromycin a oxime” (1993).
Converted amounts (≈) assume the structure as drawn.

What was measured:
Assay type in all cases: functional
[1] = tested on: Streptococcus pneumoniae; experiment: Minimum inhibitory concentration required for antibacterial activity against Streptococcus pneumoniae CL 2883 strain
[2] = tested on: Haemophilus influenzae; experiment: Minimum inhibitory concentration required for antibacterial activity against Haemophilus influenzae MB 5363 strain;value ranges from 0.5-2
[3] = tested on: Enterobacter cloacae; experiment: Minimum inhibitory concentration required for antibacterial activity against Enterobacter cloacae CL 4298 strain
[4] = tested on: Enterococcus faecalis; experiment: Minimum inhibitory concentration required for antibacterial activity against Enterococcus faecalis MB 5407 strain
[5] = tested on: Streptococcus pyogenes; experiment: Minimum inhibitory concentration required for antibacterial activity against Streptococcus pyogenes MB 2874 strain
[6] = tested on: Escherichia coli; experiment: Minimum inhibitory concentration required for antibacterial activity against Escherichia coli MB 2884 strain;value ranges from 1-2
[7] = tested on: Staphylococcus aureus; experiment: Minimum inhibitory concentration required for antibacterial activity against Staphylococcus aureus MB 2865 strain;value ranges from 0.25-1
[8] = tested on: Haemophilus influenzae; experiment: Minimum inhibitory concentration required for antibacterial activity against Haemophilus influenzae CL 1830 strain;value ranges from 4-16
[9] = tested on: Staphylococcus epidermidis; experiment: Minimum inhibitory concentration required for antibacterial activity against Staphylococcus epidermidis MB 5414 strain;value ranges from 0.25-0.5
[10] = tested on: Klebsiella pneumoniae; experiment: Minimum inhibitory concentration required for antibacterial activity against Klebsiella pneumoniae MB 4005 strain;value ranges from 1-2
[11] = tested on: Klebsiella pneumoniae; experiment: Minimum inhibitory concentration required for antibacterial activity against Klebsiella pneumoniae MB 4005 strain
[12] = tested on: Staphylococcus epidermidis; experiment: Minimum inhibitory concentration required for antibacterial activity against Staphylococcus epidermidis MB 5414 strain;value ranges from 16-128
[13] = tested on: Haemophilus influenzae; experiment: Minimum inhibitory concentration required for antibacterial activity against Haemophilus influenzae CL 1830 strain
[14] = tested on: Escherichia coli; experiment: Minimum inhibitory concentration required for antibacterial activity against Escherichia coli MB 2884 strain
[15] = tested on: Staphylococcus aureus; experiment: Minimum inhibitory concentration required for antibacterial activity against Staphylococcus aureus MB 2865 strain;value ranges from 32-64
[16] = tested on: Haemophilus influenzae; experiment: Minimum inhibitory concentration required for antibacterial activity against Haemophilus influenzae MB 5363 strain
[17] = tested on: Staphylococcus epidermidis; experiment: Minimum inhibitory concentration required for antibacterial activity against Staphylococcus epidermidis MB 5414 strain
[18] = tested on: Staphylococcus aureus; experiment: Minimum inhibitory concentration required for antibacterial activity against Staphylococcus aureus MB 2865 strain
[19] = tested on: Staphylococcus aureus; experiment: Minimum inhibitory concentration required for antibacterial activity against Staphylococcus aureus MB 2865 strain;value ranges from 0.5-1
[20] = tested on: Enterobacter cloacae; experiment: Minimum inhibitory concentration required for antibacterial activity against Enterobacter cloacae CL 4298 strain;value ranges from 32-64
[21] = tested on: Haemophilus influenzae; experiment: Minimum inhibitory concentration required for antibacterial activity against Haemophilus influenzae MB 5363 strain;value ranges from 2-4
[22] = tested on: Escherichia coli; experiment: Minimum inhibitory concentration required for antibacterial activity against Escherichia coli MB 2884 strain;value ranges from 16-64
[23] = tested on: Klebsiella pneumoniae; experiment: Minimum inhibitory concentration required for antibacterial activity against Klebsiella pneumoniae MB 4005 strain;value ranges from 32-64
[24] = tested on: Staphylococcus aureus; experiment: microbe, parasite or virus in culture
[25] = tested on: Enterococcus faecalis; experiment: Minimum inhibitory concentration required for antibacterial activity against Enterococcus faecalis MB 5407 strain;value ranges from 1-2
[26] = tested on: Haemophilus influenzae; experiment: Minimum inhibitory concentration required for antibacterial activity against Haemophilus influenzae CL 1830 strain;value ranges from 64-128
[27] = tested on: Enterococcus faecalis; experiment: Minimum inhibitory concentration required for antibacterial activity against Enterococcus faecalis MB 5407 strain;value ranges from 4-8
[28] = tested on: Haemophilus influenzae; experiment: Minimum inhibitory concentration required for antibacterial activity against Haemophilus influenzae CL 1830 strain;value ranges from 8-16

MIC [1] [µg/mL]	MIC [3] [µg/mL]	MIC [4] [µg/mL]	MIC [5] [µg/mL]	MIC [11] [µg/mL]	MIC [13] [µg/mL]	MIC [14] [µg/mL]	MIC [16] [µg/mL]	MIC [17] [µg/mL]	SMILES	also measured
≤ 0.06	1 (≈ 1.34 µM)	2 (≈ 2.67 µM)	≤ 0.06						CC[C@H]1OC(=O)[C@H](C)[C@@H](O[C@H]2C[C@@](C)(OC)[C@@H](O)[C@H](C)O2)[C@H](C)[C@@H](O[C@@H]2O[C@H](C)C[C@H](N(C)C)[C@H]2O)[C@](C)(O)C[C@@H](C)N(C)C[C@H](C)[C@@H](O)[C@]1(C)O [L-701677]	MIC [2]: 0.5 µg/mL (≈ 0.668 µM); MIC [6]: 1 µg/mL (≈ 1.34 µM); MIC [7]: 0.25 µg/mL (≈ 0.334 µM); MIC [8]: 4 µg/mL (≈ 5.34 µM); MIC [9]: 0.25 µg/mL (≈ 0.334 µM); MIC [10]: 1 µg/mL (≈ 1.34 µM)
2 (≈ 2.74 µM)	128 (≈ 175 µM)	16 (≈ 21.9 µM)	0.5 (≈ 0.684 µM)	> 128	> 128	128 (≈ 175 µM)	64 (≈ 87.6 µM)		CC[C@H]1OC(=O)[C@H](C)[C@@H](O[C@H]2C[C@@](C)(OC)[C@@H](O)[C@H](C)O2)[C@H](C)[C@@H](O[C@@H]2O[C@H](C)C[C@H](N(C)C)[C@H]2O)[C@@]2(C)C[C@@H](C)N=C(O2)[C@H](C)[C@@H](O)[C@]1(C)O	MIC [12]: 16 µg/mL (≈ 21.9 µM); MIC [15]: 32 µg/mL (≈ 43.8 µM)
≤ 0.06	4 (≈ 5.44 µM)	4 (≈ 5.44 µM)	≤ 0.06	4 (≈ 5.44 µM)	32 (≈ 43.5 µM)	2 (≈ 2.72 µM)	4 (≈ 5.44 µM)	0.5 (≈ 0.68 µM)	CC[C@H]1OC(=O)[C@H](C)[C@@H](O[C@H]2C[C@@](C)(OC)[C@@H](O)[C@H](C)O2)[C@H](C)[C@@H](O[C@@H]2O[C@H](C)C[C@H](N(C)C)[C@H]2O)[C@](C)(O)C[C@@H](C)NC[C@H](C)[C@@H](O)[C@]1(C)O	MIC [19]: 0.5 µg/mL (≈ 0.68 µM)

Continued, compound first:

SMILES	MIC [1] [µg/mL]	MIC [3] [µg/mL]	MIC [4] [µg/mL]	MIC [5] [µg/mL]	MIC [11] [µg/mL]	MIC [13] [µg/mL]	MIC [14] [µg/mL]	MIC [16] [µg/mL]	MIC [17] [µg/mL]	also measured
CC[C@H]1OC(=O)[C@H](C)[C@@H](O[C@H]2C[C@@](C)(OC)[C@@H](O)[C@H](C)O2)[C@H](C)[C@@H](O[C@@H]2O[C@H](C)C[C@H](N(C)C)[C@H]2O)[C@](C)(O)C[C@@H](C)/N=C2/O[C@@]1(C)[C@H](O)[C@H]2C	4 (≈ 5.47 µM)	128 (≈ 175 µM)	> 128	2 (≈ 2.74 µM)	> 128	> 128	128 (≈ 175 µM)	64 (≈ 87.6 µM)	16 (≈ 21.9 µM)	MIC [18]: 16 µg/mL (≈ 21.9 µM)
CC[C@H]1OC(=O)[C@H](C)[C@@H](O[C@H]2C[C@@](C)(OC)[C@@H](O)[C@H](C)O2)[C@H](C)[C@@H](O[C@@H]2O[C@H](C)C[C@H](N(C)C)[C@H]2O)[C@](C)(O)C[C@@H](C)NC(=O)[C@H](C)[C@@H](O)[C@]1(C)O	≤ 0.06		8 (≈ 10.7 µM)	≤ 0.06	32 (≈ 42.7 µM)		16 (≈ 21.4 µM)	32 (≈ 42.7 µM)	0.5 (≈ 0.668 µM)	MIC [18]: 0.5 µg/mL (≈ 0.668 µM)
CC[C@H]1OC(=O)[C@H](C)[C@@H](O[C@H]2C[C@@](C)(OC)[C@@H](O)[C@H](C)O2)[C@H](C)[C@@H](O[C@@H]2O[C@H](C)C[C@H](N(C)C)[C@H]2O)[C@](C)(O)C[C@@H](C)C(=O)[C@H](C)[C@@H](O)[C@]1(C)O [ERYTHROMYCIN]	≤ 0.06			≤ 0.06					0.125 (≈ 0.17 µM)	MIC [20]: 32 µg/mL (≈ 43.6 µM); MIC [21]: 2 µg/mL (≈ 2.73 µM); MIC [22]: 16 µg/mL (≈ 21.8 µM); MIC [23]: 32 µg/mL (≈ 43.6 µM); MIC [24]: 0.125 µg/mL (≈ 0.17 µM); MIC [25]: 1 µg/mL (≈ 1.36 µM); MIC [26]: 64 µg/mL (≈ 87.2 µM)
CC[C@H]1OC(=O)[C@H](C)[C@@H](O[C@H]2C[C@@](C)(OC)[C@@H](O)[C@H](C)O2)[C@H](C)[C@@H](O[C@@H]2O[C@H](C)C[C@H](N(C)C)[C@H]2O)[C@](C)(O)C[C@@H](C)CN(C)[C@H](C)[C@@H](O)[C@]1(C)O [AZITHROMYCIN]	≤ 0.06	1 (≈ 1.34 µM)		≤ 0.06						MIC [2]: 0.5 µg/mL (≈ 0.668 µM); MIC [19]: 0.5 µg/mL (≈ 0.668 µM); MIC [27]: 4 µg/mL (≈ 5.34 µM); MIC [6]: 1 µg/mL (≈ 1.34 µM); MIC [28]: 8 µg/mL (≈ 10.7 µM); MIC [9]: 0.25 µg/mL (≈ 0.334 µM); MIC [10]: 1 µg/mL (≈ 1.34 µM)
